PubChem BioAssay (NCI)
Where “and” joins values, the source holds several entries; their conditions need not be identical. Identical values can stand only once.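 Growth conditions: 96-well plates. Treatment: test compound, 48 hours, 5 concentrations. Analysis: linear interpolation between bracketing concentrations; unreached endpoints set to highest concentration. At the GI50, growth is halved. TGI is the concentration that stops growth completely.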

Key:
Assay in all cases: NCI-60 cell line screen, 48 h
[1] = tested on: 786-0 renal
[2] = tested on: A498 renal
[3] = tested on: A549 NSCLC
[4] = tested on: ACHN renal
[5] = tested on: CAKI-1 renal
[6] = tested on: CCRF-CEM leukemia
[7] = tested on: COLO 205 colon
[8] = tested on: EKVX NSCLC
[9] = tested on: HCC-2998 colon
[10] = tested on: HCT-116 colon
[11] = tested on: HCT-15 colon
[12] = tested on: HOP-62 NSCLC
[13] = tested on: HOP-92 NSCLC
[14] = tested on: HT29 colon
[15] = tested on: IGROV1 ovarian
[16] = tested on: K-562 leukemia
[17] = tested on: KM12 colon
[18] = tested on: KM20L2 colon
[19] = tested on: LOX IMVI melanoma
[20] = tested on: M14 melanoma
[21] = tested on: MALME-3M melanoma
[22] = tested on: MOLT-4 leukemia
[23] = tested on: NCI-H226 lung
[24] = tested on: NCI-H23 lung
[25] = tested on: NCI-H460 lung
[26] = tested on: NCI-H522 lung
[27] = tested on: OVCAR-3 ovarian
[28] = tested on: OVCAR-4 ovarian
[29] = tested on: OVCAR-5 ovarian
[30] = tested on: OVCAR-8 ovarian
[31] = tested on: RPMI-8226 leukemia
[32] = tested on: RXF 393 renal
[33] = tested on: SF-268 CNS
[34] = tested on: SF-295 CNS
[35] = tested on: SF-539 CNS
[36] = tested on: SK-MEL-2 melanoma
[37] = tested on: SK-MEL-28 melanoma
[38] = tested on: SK-MEL-5 melanoma
[39] = tested on: SK-OV-3 ovarian
[40] = tested on: SN12C renal
[41] = tested on: SNB-19 CNS
[42] = tested on: SNB-75 CNS
[43] = tested on: SR leukemia
[44] = tested on: SW-620 colon
[45] = tested on: TK-10 renal
[46] = tested on: U251 CNS
[47] = tested on: UACC-257 melanoma
[48] = tested on: UACC-62 melanoma
[49] = tested on: UO-31 renal
[50] = tested on: BT-549 breast
[51] = tested on: DU-145 prostate
[52] = tested on: HL-60(TB) leukemia
[53] = tested on: HS 578T breast
[54] = tested on: MCF7 breast
[55] = tested on: MDA-MB-231 breast
[56] = tested on: MDA-MB-435
[57] = tested on: MDA-N
[58] = tested on: NCI/ADR-RES ovarian
[59] = tested on: PC-3 prostate
[60] = tested on: T-47D breast

COc1cccc(/C=N/[N-]C(N)=O)c1[O-].[OH3+].[Zn+2]
TGI [1]: > 100 µM | TGI [2]: > 100 µM | TGI [3]: > 100 µM | TGI [4]: > 100 µM | TGI [5]: > 100 µM | TGI [6]: > 100 µM | TGI [7]: > 100 µM | TGI [8]: > 100 µM | TGI [9]: > 100 µM | TGI [10]: > 100 µM | TGI [11]: > 100 µM | TGI [12]: > 100 µM | TGI [13]: > 100 µM | TGI [14]: > 100 µM | TGI [15]: > 100 µM | TGI [16]: > 100 µM | TGI [17]: > 100 µM | TGI [18]: > 100 µM | TGI [19]: > 100 µM | TGI [20]: > 100 µM | TGI [21]: > 100 µM | TGI [22]: > 100 µM | TGI [23]: > 100 µM | TGI [24]: > 100 µM | TGI [25]: > 100 µM | TGI [26]: > 100 µM | TGI [27]: > 100 µM | TGI [28]: > 100 µM | TGI [29]: > 100 µM | TGI [30]: > 100 µM | TGI [31]: > 100 µM | TGI [32]: > 100 µM | TGI [33]: > 100 µM | TGI [34]: > 100 µM | TGI [35]: > 100 µM | TGI [36]: > 100 µM | TGI [37]: > 100 µM | TGI [38]: > 100 µM | TGI [39]: > 100 µM | TGI [40]: > 100 µM | TGI [41]: > 100 µM | TGI [42]: > 100 µM | TGI [43]: > 100 µM | TGI [44]: > 100 µM | TGI [45]: > 100 µM | TGI [46]: > 100 µM | TGI [47]: > 100 µM | TGI [48]: > 100 µM | TGI [49]: > 100 µM

O=[N+]([O-])c1ccc([I+]c2ccccc2)cc1
GI50 [1]: 1.78 µM | TGI [2]: 6.49 µM and 5.48 µM | GI50 [3]: 1.93 µM | GI50 [4]: 5.15 µM | TGI [4]: > 31.6 µM and 18.5 µM | GI50 [50]: 1.63 µM | TGI [50]: 8.12 µM and 3.09 µM | GI50 [5]: 0.289 µM | TGI [5]: 15 µM and 1.58 µM | GI50 [6]: 3.21 µM | TGI [6]: > 100 µM and 10.9 µM | GI50 [7]: 1.37 µM | TGI [7]: 13.5 µM and 3.82 µM | GI50 [51]: 2.25 µM | TGI [51]: 25 µM and 6.35 µM | GI50 [8]: 1.5 µM | TGI [8]: 32 µM and 3.32 µM | GI50 [9]: 3.22 µM | TGI [9]: 16.4 µM and 11.3 µM | GI50 [10]: 1.83 µM | TGI [10]: 17.5 µM and 3.8 µM | GI50 [11]: 8.9 µM | TGI [11]: 18.3 µM and 23.4 µM | GI50 [52]: 3.15 µM | TGI [52]: 27.4 µM and 9.73 µM | GI50 [12]: 1.56 µM | TGI [12]: 25.6 µM and 3.3 µM | TGI [13]: 23.5 µM and 25.1 µM | GI50 [53]: 2 µM | TGI [53]: 13.5 µM and 5.85 µM | GI50 [14]: 2.08 µM | TGI [14]: 8.33 µM and 5.08 µM | TGI [15]: 35.3 µM | TGI [16]: > 53.2 µM | GI50 [17]: 1.67 µM | TGI [17]: 9.64 µM and 3.15 µM | GI50 [19]: 0.583 µM | TGI [19]: 1.99 µM | GI50 [20]: 1.97 µM | TGI [20]: 16.4 µM and 4.33 µM | GI50 [21]: 1.31 µM | TGI [21]: 11.2 µM and 3.54 µM | GI50 [54]: 2.24 µM | TGI [54]: 10.3 µM and 8.25 µM | GI50 [55]: 2.1 µM | TGI [55]: 12.9 µM and 4.9 µM | GI50 [56]: 1.85 µM | TGI [56]: 23.3 µM and 4.33 µM | TGI [57]: 20.9 µM | GI50 [22]: 3.17 µM | TGI [22]: > 26.2 µM and 75.3 µM | GI50 [23]: 1.45 µM | TGI [23]: 19.1 µM and 3.2 µM | GI50 [24]: 1.23 µM | TGI [24]: 5.98 µM and 2.74 µM | GI50 [25]: 1.78 µM | TGI [25]: 11.9 µM and 3.93 µM | GI50 [26]: 1.52 µM | TGI [26]: 4.2 µM and 3.03 µM | GI50 [58]: 2.25 µM | TGI [58]: > 29.1 µM and 6.92 µM | GI50 [27]: 1.8 µM | TGI [27]: 12.2 µM and 3.39 µM | GI50 [28]: 1.67 µM | TGI [28]: 11.9 µM and 3.69 µM | GI50 [29]: 1.78 µM | TGI [29]: 17 µM and 3.34 µM | GI50 [30]: 2.78 µM | TGI [30]: 12.2 µM and 10.3 µM | GI50 [59]: 2.16 µM | TGI [59]: 11 µM and 5.21 µM | GI50 [31]: 4.64 µM | TGI [31]: 47.2 µM and 54.2 µM | GI50 [32]: 1.87 µM | TGI [32]: 10.8 µM and 3.76 µM | GI50 [33]: 1.65 µM | TGI [33]: 13.1 µM and 3.11 µM | GI50 [34]: 1.64 µM | TGI [34]: 10.1 µM and 3.24 µM | GI50 [35]: 1.77 µM | TGI [35]: 14.3 µM and 3.47 µM | GI50 [36]: 2.25 µM | TGI [36]: 7.47 µM | GI50 [37]: 1.92 µM | TGI [37]: 10.1 µM and 4.57 µM | GI50 [38]: 1.54 µM | TGI [38]: 21.2 µM and 2.93 µM | GI50 [39]: 1.73 µM | TGI [39]: 3.6 µM and 3.24 µM | GI50 [40]: 1.4 µM | TGI [40]: 3.26 µM and 2.89 µM | GI50 [41]: 1.63 µM | TGI [41]: 9.99 µM and 3.03 µM | GI50 [42]: 1.66 µM | TGI [42]: 3.28 µM | TGI [43]: > 47.8 µM | GI50 [44]: 1.85 µM | TGI [44]: 12.2 µM and 4.31 µM | GI50 [60]: 1.3 µM | TGI [60]: 26 µM and 5.04 µM | GI50 [45]: 3.61 µM | TGI [45]: 26.9 µM and 15.5 µM | GI50 [46]: 1.71 µM | TGI [46]: 10.9 µM and 3.43 µM | GI50 [47]: 1.6 µM | TGI [47]: 13.9 µM and 4.42 µM | GI50 [48]: 1.43 µM | TGI [48]: 8.17 µM and 3.62 µM | TGI [49]: 11.9 µM
